Like-named read-outs stand apart in the source and are kept apart here.
Target: CFTR (Homo sapiens, UniProt P13569)
Test: Membrane Potential Dye, Enteroid Assay B
Type: cell-based
Procedure: Base medium (ADF+++) consisted of Advanced […], 2 mM Glutamax, 10 mM HEPES, 1 μg/mL penicillin/streptomycin.
Intestinal enteroid maintenance medium (IEMMN) consisted of ADF+++, 1× B27 supplement, 1× N2 supplement, 1.25 mM N-acetyl cysteine, 10 mM Nicotinamide, 50 ng/mL hEGF, 10 nM Gastrin, 1 μg/mL hR-spondin-1, 100 ng/mL hNoggin, TGF-b type 1 inhibitor A-83-01, 100 μg/mL Primocin, 10 μM P38 MAPK inhibitor SB202190.
Bath 1 Buffer consisted of 1 mM MgCl2, 160 mM NaCl, 4.5 mM KCl, 10 mM HEPES, 10 mM Glucose, 2 mM CaCl2).
Chloride Free Buffer consisted of 1 mM Magnesium Gluconate, 2 mM Calcium Gluconate, 4.5 mM Potassium Gluconate, 160 mM Sodium Gluconate, 10 mM HEPES, 10 mM Glucose.
Bath 1 Dye Solution consisted of Bath 1 Buffer, 0.04% Pluronic F127, 20 μM Methyl Oxonol, 30 μM CaCCinh-A01, 30 μM Chicago Sky Blue.
Chloride Free Dye Solution consisted of Chloride Free Buffer, 0.04% Pluronic F127, 20 μM Methyl Oxonol, 30 μM CaCCinh-A01, 30 μM Chicago Sky Blue.
Chloride Free Dye Stimulation Solution consisted of Chloride Free Dye Solution, 10 μM forskolin, 100 μM IBMX, and 300 nM Compound III.
Human intestinal epithelial enteroid cells were obtained from the Hubrecht Institute for Developmental Biology and Stem Cell Research, Utrecht, The Netherlands and expanded in T-Flasks as previously described (Dekkers J F, Wiegerinck C L, de Jonge H R, Bronsveld I, Janssens H M, de Winter-de Groot K M, Brandsma A M, de Jong N W M, Bijvelds M J C, Scholte B J, Nieuwenhuis E E S, van den Brink S, Clevers H, van der Ent C K, Middendorp S and M Beekman J M. A functional CFTR assay using primary cystic fibrosis intestinal organoids. Nat Med. 2013 July; 19(7):939-45.).
3. Enteroid Cell Harvesting and Seeding
Cells were recovered in cell recovery solution, collected by centrifugation at 650 rpm for 5 min at 4° C., resuspended in TrypLE and incubated for 5 min at 37° C. Cells were then collected by centrifugation at 650 rpm for 5 min at 4° C. and resuspended in IEMM containing 10 μM ROCK inhibitor (RI). The cell suspension was passed through a 40 μm cell strainer and resuspended at 1×10^6 cells/mL in IEMM containing 10 μM RI. Cells were seeded at 5000 cells/well into multi-well plates and incubated for overnight at 37° C., 95% humidity and 5% CO2 prior to assay.
5. Membrane Potential Dye, Enteroid Assay B
Enteroid cells were incubated with test compound in IEMM for 18-24 hours at 37° C., 95% humidity and 5% CO2. […] Briefly, cells were washed 5 times in Bath 1 Buffer. Bath 1 Dye Solution was added and the cells were incubated for 25 min at room temperature. Following dye incubation, cells were washed 3 times in Chloride Free Dye Solution. Chloride transport was initiated by addition of Chloride Free Dye Stimulation Solution and the fluorescence signal was read for 15 min. […] Chloride transport was then expressed as a percentage of the chloride transport following treatment with 1 μM (14S)-8-[3-(2-{Dispiro[2.0.2.1]heptan-7-yl}ethoxy)-1H-pyrazol-1-yl]-12,12-dimethyl-2λ^6-thia-3,9,11,18,23-pentaazatetracyclo[17.3.1.111,14.05,10]tetracosa-1(22),5,7,9,19(23),20-hexaene-2,2,4-trione, 3 μM (R)-1-(2,2-difluorobenzo[d][1,3]dioxol-5-yl)-N-(1-(2,3-dihydroxypropyl)-6-fluoro-2-(1-hydroxy-2-methylpropan-2-yl)-1H-indol-5-yl)cyclopropanecarboxamide and 300 nM acute N-[2,4-bis(1,1-dimethylethyl)-5-hydroxyphenyl]-1,4-dihydro-4-oxoquinoline-3-carboxamide triple combination control (% Activity).

[1] = Table 10, read-out: Ent. B EC50

Chain of CFTR (P13569 with tags, fused parts or gaps DEL508-508): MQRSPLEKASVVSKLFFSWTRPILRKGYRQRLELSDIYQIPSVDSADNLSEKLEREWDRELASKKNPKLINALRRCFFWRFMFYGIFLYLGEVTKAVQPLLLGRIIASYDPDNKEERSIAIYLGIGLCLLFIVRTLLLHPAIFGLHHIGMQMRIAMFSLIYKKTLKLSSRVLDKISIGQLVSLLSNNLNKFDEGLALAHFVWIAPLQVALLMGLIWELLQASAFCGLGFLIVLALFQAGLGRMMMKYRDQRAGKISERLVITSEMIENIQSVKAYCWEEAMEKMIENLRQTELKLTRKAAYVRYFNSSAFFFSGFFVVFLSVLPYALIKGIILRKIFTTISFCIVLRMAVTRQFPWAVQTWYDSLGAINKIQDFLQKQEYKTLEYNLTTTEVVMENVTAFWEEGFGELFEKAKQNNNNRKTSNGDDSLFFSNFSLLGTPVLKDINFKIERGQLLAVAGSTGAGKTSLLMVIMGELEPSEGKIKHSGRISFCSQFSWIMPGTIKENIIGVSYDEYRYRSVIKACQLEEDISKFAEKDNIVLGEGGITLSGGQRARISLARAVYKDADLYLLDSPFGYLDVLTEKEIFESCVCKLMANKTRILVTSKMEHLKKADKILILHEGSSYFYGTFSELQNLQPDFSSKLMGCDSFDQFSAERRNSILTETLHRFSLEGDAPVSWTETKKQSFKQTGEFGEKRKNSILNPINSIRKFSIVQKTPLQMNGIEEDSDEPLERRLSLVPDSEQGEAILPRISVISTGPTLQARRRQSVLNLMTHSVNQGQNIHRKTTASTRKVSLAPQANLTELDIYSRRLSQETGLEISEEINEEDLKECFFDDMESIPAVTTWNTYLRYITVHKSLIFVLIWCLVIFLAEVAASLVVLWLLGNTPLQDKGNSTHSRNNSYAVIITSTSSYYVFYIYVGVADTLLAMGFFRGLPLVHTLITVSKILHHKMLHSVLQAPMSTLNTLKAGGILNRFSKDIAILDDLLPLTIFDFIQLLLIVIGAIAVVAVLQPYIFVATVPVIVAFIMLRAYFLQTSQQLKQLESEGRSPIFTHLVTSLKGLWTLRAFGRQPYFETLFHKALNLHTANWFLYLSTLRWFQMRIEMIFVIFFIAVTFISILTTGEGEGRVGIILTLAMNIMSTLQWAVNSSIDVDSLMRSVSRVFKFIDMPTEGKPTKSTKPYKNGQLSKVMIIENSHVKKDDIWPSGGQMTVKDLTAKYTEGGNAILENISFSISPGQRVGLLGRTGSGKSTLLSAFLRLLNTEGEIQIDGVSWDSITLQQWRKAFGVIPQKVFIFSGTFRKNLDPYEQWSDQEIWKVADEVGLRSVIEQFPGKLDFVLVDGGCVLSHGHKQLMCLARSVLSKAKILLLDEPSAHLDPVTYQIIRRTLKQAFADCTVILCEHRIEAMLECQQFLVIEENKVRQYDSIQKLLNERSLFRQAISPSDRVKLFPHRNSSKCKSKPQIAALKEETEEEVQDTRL

Row | Compound | Ent. B Max Activity (%) (Table 9) | EC50 (Table 9, read-out: Ent. B EC50) | Ent. B Max Activity (%) (Table 10) | EC50 [1] | also measured
1 | Cc1cccc(C)c1-c1cc2nc(n1)NS(=O)(=O)c1cccc(c1)C(=O)N(C1CC(N(C)CCC(C)(C)C)C1)[C@H](CC(C)C)CO2 (stereo partly drawn) [Compound 69, (11R)-12-[3-[3,3-dimethylbutyl(methyl)amino]cyclobutyl]-6-(2,6-dimethylphenyl)-11-isobutyl-2,2-dioxo-9-oxa-2λ^6-thia-3,5,12,19-tetrazatricyclo[12.3.1.14,8]nonadeca-1(18),4(19),5,7,14,16-hexaen-13-one] | +++ (+++ is >60%) | < 1 µM |  |  | 
2 | CCN(C(=O)OC)C1CC(N2C(=O)c3cccc(c3)S(=O)(=O)Nc3nc(cc(-c4c(C)cccc4C)n3)OC[C@H]2CC(C)(C)C)C1 (single isomer, unassigned) [Compound 238] |  |  | ++ (++ is 30-60%) | < 1 µM | 
3 | CN[C@H]1C[C@@]2(C1)C[C@H](N1C(=O)c3cccc(c3)S(=O)(=O)Nc3nc(cc(-c4c(C)cccc4C)n3)OC[C@H]1CC1(C(F)(F)F)CC1)C2 (stereo partly shown) [Compound 267] | +++ (+++ is >60%) | < 1 µM |  |  | 
4 | COCCNC1CC2(C1)CC(N1C(=O)c3cccc(c3)S(=O)(=O)Nc3nc(cc(-c4c(C)cccc4C)n3)OC[C@H]1CC(C)C)C2 (stereo in doubt) [Compound 288] | +++ (+++ is >60%) | < 1 µM |  |  | 
5 | Cc1cccc(C)c1-c1cc2nc(n1)NS(=O)(=O)c1cccc(c1)C(=O)N(C1CC(NC(=O)OC(C)C)C1)[C@H](CC(C)(C)C(F)(F)F)CO2 (single isomer, unassigned) [Compound 195] |  |  | ++ (++ is 30-60%) | < 1 µM | 
6 | Cc1cccc(C)c1-c1cc2nc(n1)NS(=O)(=O)c1cccc(c1)C(=O)N(C1CC3(CC(N)C3)C1)[C@H](CC(C)(C)C)CO2 (stereo partly shown) [Compound 463] | +++ (+++ is >60%) | < 1 µM |  |  | 
7 | Cc1cccc(C)c1-c1cc2nc(n1)NS(=O)(=O)c1cccc(c1)C(=O)N(C1CC3(CC3)C1)CC(C(C)C)O2 (stereo not shown) [Compound 468] |  |  |  |  | Ent. B Max Activity (%): ++ (++ is 30-60%); EC50 (read-out: Ent. B EC50): < 1 µM
8 | Cc1cccc(C)c1-c1cc2nc(n1)NS(=O)(=O)c1cccc(c1)C(=O)N(C1CC3(CCN(CCOC(F)(F)F)CC3)C1)[C@H](CC(C)C)CO2 [Compound 299] |  |  |  |  | Ent. B Max Activity (%): +++ (+++ is >60%); EC50 (read-out: Ent. B EC50): < 1 µM
9 | Cc1cccc(C)c1-c1cc2nc(n1)NS(=O)(=O)c1cccc(c1)C(=O)N(C1CC(NC(=O)C(C)C)C1)[C@H](CC(C)(C)C)CO2 (single isomer, unassigned) [Compound 444] | +++ (+++ is >60%) | < 1 µM |  |  | 
10 | CCC(=O)NC1CC(N2C(=O)c3cccc(c3)S(=O)(=O)Nc3nc(cc(-c4c(C)cccc4C)n3)OC[C@H]2CC(C)(C)C)C1 (stereo in doubt) [Compound 447] | +++ (+++ is >60%) | < 1 µM |  |  | 
11 | Cc1cccc(C)c1-c1cc2nc(n1)NS(=O)(=O)c1cccc(c1)C(=O)N([C@H]1C[C@@H](C(C)(C)O)C1)[C@H](CC(C)(C)C)CO2 (single isomer, unassigned) [Compound 142] |  |  | +++ (+++ is >60%) | < 1 µM | 
12 | Cc1cccc(C)c1-c1cc2nc(n1)NS(=O)(=O)c1cccc(c1)C(=O)N(C1CC3(CC3)C1)C(CC(C)(C)C(F)(F)F)CO2 (stereo not shown) [Compound 217] |  |  |  |  | Ent. B Max Activity (%): +++ (+++ is >60%); EC50 (read-out: Ent. B EC50): < 1 µM
13 | [H][C@]1(N2C(=O)c3cccc(c3)S(=O)(=O)Nc3nc(cc(-c4c(C)cccc4C)n3)OC[C@H]2CC(C)(C)C)C[C@@]2(C[C@H](NC(=O)OC3CCC3)C2)C1 (stereo in doubt) [Compound 355] |  |  | ++ (++ is 30-60%) | < 1 µM | 
14 | Cc1cccc(C)c1-c1cc2nc(n1)NS(=O)(=O)c1cccc(c1)C(=O)N(C1CCCCC1)[C@H](CC(C)(C)C)CO2 [Compound 208] |  |  | + (+ is <300%) |  | 
15 | CCC(=O)N(C)C1CC(N2C(=O)c3cccc(c3)S(=O)(=O)Nc3nc(cc(-c4c(C)cccc4C)n3)OC[C@H]2CC(C)(C)C)C1 (single isomer, unassigned) [Compound 240] |  |  | ++ (++ is 30-60%) | < 1 µM | 
16 | Cc1cccc(C)c1-c1cc2nc(n1)NS(=O)(=O)c1cccc(c1)C(=O)N(C1CC3(C1)CC(O)(CC(C)C)C3)[C@H](CC(C)(C)C)CO2 (stereo in doubt) [Compound 405] |  |  | +++ (+++ is >60%) | < 1 µM | 
17 | Cc1cccc(C)c1-c1cc2nc(n1)NS(=O)(=O)c1cccc(c1)C(=O)N(c1cnn(C)c1)[C@H](CC(C)(C)C)CO2 [Compound 230] |  |  | +++ (+++ is >60%) | < 1 µM | 
18 | Cc1cccc(C)c1-c1cc2nc(n1)NS(=O)(=O)c1cccc(n1)C(=O)N(C1CC3(C1)CC(C(C)(C)O)C3)[C@H](CC(C)(C)C)CO2 (single isomer, unassigned) [Compound 162] |  |  | +++ (+++ is >60%) | < 1 µM | 
19 | Cc1cccc(C)c1-c1cc2nc(n1)NS(=O)(=O)c1cccc(c1)C(=O)N([C@H]1C[C@@H](OC(C)C)C1)[C@H](CC1(C(F)(F)F)CC1)CO2 (single isomer, unassigned) [Compound 131] | +++ (+++ is >60%) | < 1 µM |  |  | 
20 | Cc1cccc(C)c1-c1cc2nc(n1)NS(=O)(=O)c1cccc(c1)C(=O)N(C1CC(CO)(C(C)(C)O)C1)[C@H](CC(C)(C)C)CO2 (single isomer, unassigned) [Compound 160] |  |  | +++ (+++ is >60%) | < 1 µM | 
21 | Cc1cccc(C)c1-c1cc2nc(n1)NS(=O)(=O)c1cccc(c1)C(=O)N(C1CC3(C1)CC(C(C)(C)O)C3)[C@H](CCC(C)(C)C)CO2 (single isomer, unassigned) [Compound 9] |  |  | +++ (+++ is >60%) | < 1 µM | 
22 | COC1CC(N2C(=O)c3cccc(c3)S(=O)(=O)Nc3nc(cc(-c4c(C)cccc4C)n3)OC[C@H]2CC(C)C)C1 (stereo partly shown) [Compound 467] |  |  |  |  | Ent. B Max Activity (%): +++ (+++ is >60%); EC50 (read-out: Ent. B EC50): < 1 µM
23 | Cc1cccc(C)c1-c1cc2nc(n1)NS(=O)(=O)c1cccc(c1)C(=O)N(C1CC(NC(=O)OC(C)C)C1)[C@H](CC1(C(F)(F)F)CC1)CO2 (single isomer, unassigned) [Compound 59] | +++ (+++ is >60%) | < 1 µM |  |  | 
24 | Cc1ccc(F)c(C)c1-c1cc2nc(n1)NS(=O)(=O)c1cccc(c1)C(=O)N(C1CC3(CC3)C1)[C@H](CC(C)C)CO2 [Compound 424] | +++ (+++ is >60%) | < 1 µM |  |  | 
25 | COC(=O)NC1CC2(C1)CC(N1C(=O)c3cccc(c3)S(=O)(=O)Nc3nc(cc(-c4c(C)cccc4C)n3)O[C@@H](C)[C@H]1C)C2 (stereo partly shown) [Compound 443] |  |  | ++ (++ is 30-60%) | < 1 µM | 

— patent US20230382925A1, “MODULATORS OF CYSTIC FIBROSIS TRANSMEMBRANE CONDUCTANCE REGULATOR” (VERTEX PHARMACEUTICALS INCORPORATED, priority 2020, published 2023)
